This note sets out measurements from patent US20260285853A1, “COMPOUNDS AND METHODS FOR MODULATING SPLICING” (REMIX THERAPEUTICS INC., priority 2023, published 2026).

Each structure is given as a SMILES string.

What all share (type): cell-based
For assay [1], the system named is MYB mRNA. In words: Splicing RT-qPCR assay (THP), Table 2A. The note with it: Table 2A, THP; for AC50: MYB alternative junction (AJ) mRNA, read-out: MYB AJ (AC50, increase in alternative junction mRNA); for IC50: MYB canonical junction (CJ) mRNA, read-out: MYB CJ (IC50, decrease in canonical junction mRNA). (In general: In qPCR the cycle at which signal appears reflects the starting amount.)

In assay [2] the test system is MYB mRNA. Put plainly: Gene panel canonical junction qPCR assay, decrease in CJ mRNA, Table 3. The note with it: decrease in CJ mRNA levels, canonical junction qPCR, gene panel. The method in brief: (§1)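 IC50 is the concentration giving 50% response in decrease of the canonical junction transcript, fitted with a 4-parameter logistic equation. Transcripts were quantified by RT-qPCR in A673 or K562 cells after 24 h exposure to compounds dosed up to 10 uM in 3-fold steps.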

The test system of assay [3] is HTT mRNA. Described as above. The note with it: decrease in CJ mRNA levels, canonical junction qPCR, gene panel. Summed up:
as §1

Assay [4] relates to HTT mRNA. In words: Splicing RT-qPCR assay (THP), Table 2A. The note with it: Table 2A, THP; for AC50: HTT alternative junction (AJ) mRNA, read-out: HTT AJ (AC50, increase in alternative junction mRNA); for IC50: HTT canonical junction (CJ) mRNA, read-out: HTT CJ (IC50, decrease in canonical junction mRNA).
Assay [5] concerns SH-SY5Y (human neuroblastoma) cells. In words: Cell viability, Cell Titer Glo 2.0 assay. The note with it: read-out: Viability SHSY5Y.3 GI50. The method in brief: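 Steps: serial DMSO dilution of compound, 1:100 dilution into medium, addition to cells (0.1% DMSO final). Incubate 72 h at 37 °C, 5% CO2. Assay with CellTiter-Glo 2.0 reagent.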
For orientation: ATP-based viability assays read luminescence as a measure of living cells.

Turning to `COc1cc2c(N3C[C@H](C)N[C@@H](C)C3)ccc(C(=O)Nc3cc(F)c4nn(C)cc4c3)n2n1` [Compound 697, 4-[(3S,5S)-3,5-dimethylpiperazin-1-yl]-N-(7-fluoro-2-methyl-indazol-5-yl)-2-methoxy-pyrazolo[1,5-a]pyridine-7-carboxamide], the AC50 in assay [1] and in assay [4] was under 100 nM each time. Further, the IC50 (usually the concentration that inhibits the measured activity by half) in assay [1] was under 100 nM; in assay [2] it was under 100 nM; in assay [3], 100 to 1000 nM; in assay [4], 100 to 1000 nM. Besides, the GI50 (in general, the concentration that inhibits growth by half) in assay [5] was under 100 nM.

On to `COc1cc2c(N3C[C@H](C)N[C@@H](C)C3)ccc(C(=O)Nc3cc4cn(C)nc4cc3OC)n2n1` [Compound 698, 4-[(3S,5S)-3,5-dimethylpiperazin-1-yl]-2-methoxy-N-(6-methoxy-2-methyl-indazol-5-yl) pyrazolo[1,5-a]pyridine-7-carboxamide], for which the AC50 (usually the midpoint of the concentration-response curve, whichever way the signal moves) in assay [1] was under 100 nM; in assay [4], 1000 to 10000 nM. Also, the IC50 in assay [1] is under 100 nM; in assay [2] it was under 100 nM; in assay [3], 1000 to 10000 nM; in assay [4], 1000 to 10000 nM. Further, the GI50 in assay [5] was in the range of 100 to 1000 nM.

`CNc1nc2c(C(=O)Nc3cc(F)c4nn(C)cc4c3)ccc(N3C[C@H](C)N[C@@H](C)C3)c2s1` [Compound 699, 7-[(3S,5S)-3,5-dimethylpiperazin-1-yl]-N-(7-fluoro-2-methyl-indazol-5-yl)-2-(methylamino)-1,3-benzothiazole-4-carboxamide]: the AC50 in assay [1] is under 100 nM; in assay [4] it was 100 to 1000 nM. The IC50 in assay [1] is under 100 nM; in assay [2], under 100 nM; in assay [3], 100 to 1000 nM; in assay [4] it was 100 to 1000 nM. Besides, the GI50 in assay [5] was under 100 nM.

On to `C[C@H]1CN(c2ccc(C(=O)Nc3cc(F)c4nn(C)cc4c3)c3nc(N)sc23)C[C@H](C)N1` [Compound 700, 2-amino-7-[(3S,5S)-3,5-dimethylpiperazin-1-yl]-N-(7-fluoro-2-methyl-indazol-5-yl)-1,3-benzothiazole-4-carboxamide], for which the AC50 in assay [1] was under 100 nM; in assay [4], 100 to 1000 nM. Further, the IC50 was under 100 nM in assay [1], under 100 nM in assay [2], 100 to 1000 nM in assay [3] and 100 to 1000 nM in assay [4]. In addition, the GI50 in assay [5] fell in the range of 100 to 1000 nM.

`CCNC1CCN(c2cc(F)c(C(=O)Nc3cn4ccnc4cc3OC)c3nn(C)cc23)CC1` [Compound 701, 4-[4-(ethylamino)-1-piperidyl]-6-fluoro-N-(7-methoxyimidazo[1,2-a]pyridin-6-yl)-2-methyl-indazole-7-carboxamide]: the figures for the AC50 in assay [1] and in assay [4] were 100 to 1000 nM and over 10000 nM, respectively. Moreover, the IC50 in assay [1] was 100 to 1000 nM; in assay [2], 100 to 1000 nM; in assay [3], over 10000 nM; in assay [4], over 10000 nM. In assay [5], the GI50 is over 10000 nM.

For the compound `Cc1cn2cc(NC(=O)c3ccc(N4CCC(NC5CC5)CC4)c4cn(C)nc34)nc2c(CCS(C)(=O)=O)n1` [Compound 702], the AC50 in assay [1] was 1000 to 10000 nM; in assay [4] it was over 10000 nM. For the same compound, the IC50 in assay [1] is 1000 to 10000 nM; in assay [2], 1000 to 10000 nM; in assay [3], over 10000 nM; in assay [4], over 10000 nM. Further, the GI50 in assay [5] was over 10000 nM.

For `Cc1cn2cc(NC(=O)c3ccc(N4CCC(NC5CC5)CC4)c4cn(C)nc34)nc2c(CN(C)S(C)(=O)=O)n1` [Compound 703, 4-(4-(cyclopropylamino)piperidin-1-yl)-2-methyl-N-(6-methyl-8-((N-methylmethylsulfonamido)methyl)imidazo[1,2-a]pyrazin-2-yl)-2H-indazole-7-carboxamide 2,2,2-trifluoroacetate], the concentration at half-maximal activity (AC50) in assay [1] and in assay [4] was over 10000 nM throughout. For the same compound, the IC50 in assay [1], in assay [2], in assay [3] and in assay [4] was over 10000 nM in each case. The GI50 in assay [5] was over 10000 nM.

For the compound `CCNC1CCN(c2ccc(C(=O)Nc3cc(F)c4nn(C)cc4c3)c3nc(OC)sc23)CC1` [Compound 704, 7-(4-(ethylamino)piperidin-1-yl)-N-(7-fluoro-2-methyl-2H-indazol-5-yl)-2-methoxybenzo[d]thiazole-4-carboxamide 2,2,2-trifluoroacetate], the AC50 in assay [1] was under 100 nM; in assay [4] it was 100 to 1000 nM. Further, the IC50 was under 100 nM in assay [1], under 100 nM in assay [2], 100 to 1000 nM in assay [3] and 100 to 1000 nM in assay [4]. Moreover, the GI50 in assay [5] is 100 to 1000 nM.

As for `COc1nc2c(C(=O)Nc3cc(F)c4nc(C)cn4c3)ccc(N3C[C@H](C)N[C@@H](C)C3)c2s1` [Compound 705, 7-[(3S,5S)-3,5-dimethylpiperazin-1-yl]-N-(8-fluoro-2-methyl-imidazo[1,2-a]pyridin-6-yl)-2-methoxy-1,3-benzothiazole-4-carboxamide], the results for the AC50 in assay [1] and in assay [4] were under 100 nM and 100 to 1000 nM, respectively. Moreover, the IC50 is under 100 nM in assay [1], under 100 nM in assay [2], 100 to 1000 nM in assay [3] and 100 to 1000 nM in assay [4]. Further, in assay [5], the GI50 is under 100 nM.

For the compound `C[C@H]1CN(c2ccc(C(=O)Nc3cc(F)c4nn(C)cc4c3)c3nc(CNS(C)(=O)=O)sc23)C[C@H](C)N1` [Compound 706, 7-[(3S,5S)-3,5-dimethylpiperazin-1-yl]-N-(7-fluoro-2-methyl-indazol-5-yl)-2-(methanesulfonamidomethyl)-1,3-benzothiazole-4-carboxamide], the AC50 was under 100 nM in assay [1] and 100 to 1000 nM in assay [4]. In addition, the concentration for half-maximal inhibition (IC50) in assay [1], in assay [2], in assay [3] and in assay [4] was 100 to 1000 nM throughout. Further, the 50% growth inhibitory concentration (GI50) in assay [5] is 100 to 1000 nM.

Take `C[C@H]1CN(c2ccc(C(=O)Nc3cc(F)c4nn(C)cc4c3)c3nc(CN)sc23)C[C@H](C)N1` [Compound 707, 2-(aminomethyl)-7-[(3S,5S)-3,5-dimethylpiperazin-1-yl]-N-(7-fluoro-2-methyl-indazol-5-yl)-1,3-benzothiazole-4-carboxamide]: the results for the AC50 in assay [1] and in assay [4] were under 100 nM and 100 to 1000 nM, respectively. Besides, the IC50 in assay [1] was under 100 nM; in assay [2] it was under 100 nM; in assay [3], 1000 to 10000 nM; in assay [4], 1000 to 10000 nM. In addition, in assay [5], the GI50 was 100 to 1000 nM.

On to `Cn1cc2cc(NC(=O)c3cc(F)c(N4CCC(NC5CC5)CC4)c4cn(C)nc34)cc(F)c2n1` [Compound 708, 4-[4-(cyclopropylamino)-1-piperidyl]-5-fluoro-N-(7-fluoro-2-methyl-indazol-5-yl)-2-methyl-indazole-7-carboxamide], for which the values for the AC50 in assay [1] and in assay [4] were 1000 to 10000 nM and over 10000 nM, respectively. For the same compound, the IC50 in assay [1], in assay [2], in assay [3] and in assay [4] was over 10000 nM throughout. The GI50 in assay [5] was in the range of 1000 to 10000 nM.

Consider `COc1c(NC(=O)c2cc(F)c(N3CCC(NC4CC4)CC3)c3cn(C)nc23)cn2cc(C)nc2c1F` [Compound 709], for which the AC50 is 100 to 1000 nM in assay [1] and 1000 to 10000 nM in assay [4]. Further, the IC50 in assay [1] was in the range of 100 to 1000 nM; in assay [2], 100 to 1000 nM; in assay [3] it was 1000 to 10000 nM; in assay [4] it was 1000 to 10000 nM. The GI50 in assay [5] lay within 1000 to 10000 nM.

Regarding `COc1nc2c(C(=O)Nc3cc4c(C)nc(C)cn4n3)ccc(N3C[C@H](C)N[C@@H](C)C3)c2s1` [Compound 710, 7-[(3S,5S)-3,5-dimethylpiperazin-1-yl]-N-(4,6-dimethylpyrazolo[1,5-a]pyrazin-2-yl)-2-methoxy-1,3-benzothiazole-4-carboxamide], the AC50 in assay [1] and in assay [4] was 1000 to 10000 nM throughout. The IC50 in assay [1], in assay [2], in assay [3] and in assay [4] was 1000 to 10000 nM throughout. Also, the GI50 in assay [5] is 1000 to 10000 nM.

In the case of `COc1nc2c(C(=O)Nc3cn4cc(C)nc(C)c4n3)ccc(N3C[C@H](C)N[C@@H](C)C3)c2s1` [Compound 711, N-(6,8-dimethylimidazo[1,2-a]pyrazin-2-yl)-7-[(3S,5S)-3,5-dimethylpiperazin-1-yl]-2-methoxy-1,3-benzothiazole-4-carboxamide], the figures for the AC50 in assay [1] and in assay [4] were 1000 to 10000 nM and over 10000 nM, respectively. Further, the IC50 in assay [1] was 1000 to 10000 nM; in assay [2], 1000 to 10000 nM; in assay [3], over 10000 nM; in assay [4], over 10000 nM. The GI50 in assay [5] lay in the range of 1000 to 10000 nM.

As for `C[C@H]1CN(c2ccc(C(=O)Nc3cc(F)c4nn(C)cc4c3)c3nc(OCCO)sc23)C[C@H](C)N1` [Compound 712, 7-[(3S,5S)-3,5-dimethylpiperazin-1-yl]-N-(7-fluoro-2-methyl-indazol-5-yl)-2-(2-hydroxyethoxy)-1,3-benzothiazole-4-carboxamide], the AC50 in assay [1] and in assay [4] was under 100 nM in each case. Also, the IC50 in assay [1], in assay [2], in assay [3] and in assay [4] was under 100 nM in each case. Besides, the GI50 in assay [5] was under 100 nM.
